How the values were obtained:
[1] = Mean estimated half-life of epirubicin following intravenous epirubicin at 1 mg.Kg-1 dose administered approximately 25 minute prior to epirubicin once weekly for four weeks in dog; type: ADME, organism-based, Canis lupus familiaris; details: Beagle, plasma
[2] = Plasma clearance of 4'-epiadriamycin following intravenous 4'-epiadriamycin at 1.27 mg.Kg-1 dose in dog; type: ADME, organism-based, Canis lupus familiaris; details: Beagle, read-out: Clp
[3] = Recovery of epirubicin following intravenous epirubicin at 4 mg.Kg-1 dose in rat; type: ADME, organism-based, SD, Plasma; details: in vivo
[4] = Increase in serum total cholesterol level following reference intravenous epirubicin at 1 mg.Kg-1 per week in rat; type: toxicity, organism-based, SD; details: in vivo
[5] = Increase in serum phospholipid level following reference intravenous epirubicin at 1 mg.Kg-1 per week in rat; type: toxicity, organism-based, SD; details: in vivo
[6] = target: Albumin (Homo sapiens, UniProt P02768); test: Binding of epirubicin to albumin; type: cell-free; details: read-out: Plasma protein binding (converted)
[7] = Cumulative urinary excretion of epirubicin and its metabolites following epirubicin at 60-150 mg.m-2 dose in cancer patients; type: ADME, organism-based, Urine; details: human, in vivo
[8] = Cumulative urinary excretion of epirubicin and its metabolites following epirubicin at 50 mg.m-2 dose in cancer patients; type: ADME, organism-based, Urine; details: human, in vivo; at 50 mg/m2
[9] = Urinary excretion of epirubicin following epirubicin at 60 mg.m-2 dose in cancer patients; type: ADME, organism-based; details: human, urine, at 60 mg/m2, read-out: Compound recovery
[10] = Cumulative urinary excretion of epirubicin and its metabolites following epirubicin at 75-90 mg.m-2 dose in cancer patients; type: ADME, organism-based, Urine; details: human, in vivo
[11] = Biliary excretion of epirubicin following epirubicin at 50 mg.m-2 dose in cancer patients; type: ADME, organism-based; details: human, bile, at 50 mg/m2, read-out: Compound recovery
[12] = Percentage of epirubicin excreted unchanged in urine following epirubicin at 60 mg.m-2 dose in cancer patients; type: ADME, organism-based; details: human, at 60 mg/m2, read-out: Compound recovery
[13] = Mean plasma clearance of epirubicin following intravenous epirubicin at 150 mg.m-2 dose in advanced cancer patients; type: ADME, organism-based; details: human, read-out: CLp (converted)
[14] = Mean plasma clearance of epirubicin following intravenous epirubicin at 60 mg.m-2 dose in cancer patients; type: ADME, organism-based; details: human, read-out: CLp (converted)
[15] = Half-life of terminal elimination phase of epirubicin following intravenous epirubicin at 60-90 mg.m-2 dose in cancer patients; type: ADME, organism-based; details: human, plasma
[16] = Volume of distribution as steady state of epirubicin following intravenous epirubicin at 60-90 mg.m-2 dose in cancer patients; type: ADME, organism-based, Plasma; details: human, in vivo
[17] = Volume of distribution as steady state of epirubicin following intravenous epirubicin at 30-90 mg.m-2 dose in cancer patients; type: ADME, organism-based, Plasma; details: human, in vivo
[18] = Initial phase half-life of epirubicin following intravenous epirubicin at 60 mg.m-2 dose in cancer patients; type: ADME, organism-based, Plasma; details: human, in vivo
[19] = Initial phase half-life of epirubicin following intravenous epirubicin at 20 mg.m-2 dose in cancer patients; type: ADME, organism-based, Plasma; details: human, in vivo
[20] = Half-life of terminal elimination phase of epirubicin following intravenous epirubicin at 20 mg.m-2 dose in cancer patients; type: ADME, organism-based; details: human, plasma
[21] = Volume of distribution as steady state of epirubicin following intravenous epirubicin at 40-135 mg.m-2 dose in cancer patients; type: ADME, organism-based, Plasma; details: human, in vivo
[22] = Terminal elimination of metabolite of epirubicin following intravenous epirubicin at 40-135 mg.m-2 dose in cancer patients; type: ADME, organism-based, Plasma; details: human, in vivo
[23] = Initial phase half-life of epirubicin following intravenous epirubicin at 70 mg.m-2 dose in cancer patients; type: ADME, organism-based, Plasma; details: human, in vivo
[24] = Half-life of terminal elimination phase of epirubicin following intravenous epirubicin at 40-60 mg.m-2 dose in cancer patients; type: ADME, organism-based; details: human, plasma
[25] = Volume of distribution as steady state of epirubicin following intravenous epirubicin at 40-60 mg.m-2 dose in cancer patients; type: ADME, organism-based, Plasma; details: human, in vivo
[26] = Terminal elimination of metabolite of epirubicin following intravenous epirubicin at 40-60 mg.m-2 dose in cancer patients; type: ADME, organism-based, Plasma; details: human, in vivo
[27] = Initial phase half-life of epirubicin following intravenous epirubicin at 50 mg.m-2 dose in cancer patients; type: ADME, organism-based, Plasma; details: human, in vivo
[28] = Volume of distribution as steady state of epirubicin following intravenous epirubicin at 50 mg.m-2 dose in cancer patients; type: ADME, organism-based, Plasma; details: human, in vivo
[29] = Half-life of terminal elimination phase of epirubicin following intravenous epirubicin at 25-35 mg.m-2 dose in cancer patients; type: ADME, organism-based; details: human, plasma
[30] = Plasma clearance of epirubicin following intravenous epirubicin at 25-35 mg.m-2 dose in cancer patients; type: ADME, organism-based; details: human, in vivo
[31] = Terminal elimination of metabolite of epirubicin following intravenous epirubicin at 25-35 mg.m-2 dose in cancer patients; type: ADME, organism-based, Plasma; details: human, in vivo
[32] = Half-life of terminal elimination phase of epirubicin following intravenous epirubicin at 75-90 mg.m-2 dose in cancer patients; type: ADME, organism-based; details: human, plasma
[33] = Volume of distribution as steady state of epirubicin following intravenous epirubicin at 75-90 mg.m-2 dose in cancer patients; type: ADME, organism-based, Plasma; details: human, in vivo
[34] = Detection of epirubicin in heart following single intravenous epirubicin at 10 mg.Kg-1 dose in female mouse bearing colon tumor; type: ADME, organism-based, BALB/c; details: in vivo
[35] = Urinary elimination of 4'-epiadriamycin following intravenous bolus 4'-epiadriamycin at 10 mg.Kg-1 dose in rat; type: ADME, organism-based; details: SD, urine, read-out: Compound recovery
[36] = Terminal half-life of epirubicin following intravenous epirubicin at 1 mg.Kg-1 dose in rabbit; type: ADME, organism-based, Oryctolagus cuniculus; details: both, New Zealand White, plasma
[37] = AUC of epirubicin following intravenous epirubicin at 1 mg.Kg-1 dose in rabbit; type: ADME, organism-based, Oryctolagus cuniculus; details: both, New Zealand White, plasma
[38] = AUC of epirubicin following intravenous epirubicin at 3 mg.Kg-1 dose in rabbit; type: ADME, organism-based, Oryctolagus cuniculus; details: both, New Zealand White, plasma
[39] = Plasma clearance of epirubicin following intravenous epirubicin at 3 mg.Kg-1 dose in rabbit; type: ADME, organism-based, Oryctolagus cuniculus; details: both, New Zealand White
[40] = Volume of distribution of epirubicin following intravenous epirubicin at 1 mg.Kg-1 dose in rabbit; type: ADME, organism-based, Oryctolagus cuniculus; details: both, New Zealand White, plasma
[41] = AUC of epirubicin following intravenous epirubicin solution at 1 mg.Kg-1 dose in rabbit; type: ADME, organism-based, Oryctolagus cuniculus; details: both, New Zealand White, blood
[42] = Volume of distribution of epirubicin following intravenous epirubicin solution at 1 mg.Kg-1 dose in rabbit; type: ADME, organism-based, Oryctolagus cuniculus; details: both, New Zealand White, blood
[43] = Volume of distribution of epirubicin following intravenous epirubicin emulsion at 1 mg.Kg-1 dose in rabbit; type: ADME, organism-based, Oryctolagus cuniculus; details: both, New Zealand White, blood
[44] = Mean residence time (MRT) of epirubicin following intravenous epirubicin solution at 1 mg.Kg-1 dose in rabbit; type: ADME, organism-based, Oryctolagus cuniculus; details: both, New Zealand White, blood, read-out: Mean residence time (converted)
[45] = AUC of epirubicin following intrahepatic epirubicin emulsion at 1 mg.Kg-1 dose in rabbit; type: ADME, organism-based, Oryctolagus cuniculus; details: both, New Zealand White, blood
[46] = Plasma clearance of epirubicin following intrahepatic epirubicin emulsion at 1 mg.Kg-1 dose in rabbit; type: ADME, organism-based, Oryctolagus cuniculus, Blood; details: both, New Zealand White
[47] = Volume of distribution of epirubicin following intrahepatic epirubicin solution at 1 mg.Kg-1 dose in rabbit; type: ADME, organism-based, Oryctolagus cuniculus; details: both, New Zealand White, blood
[48] = Mean residence time (MRT) of epirubicin following intrahepatic epirubicin solution at 1 mg.Kg-1 dose in rabbit; type: ADME, organism-based, Oryctolagus cuniculus; details: both, New Zealand White, blood, read-out: Mean residence time (converted)
[49] = Mean residence time (MRT) of epirubicin following intrahepatic epirubicin emulsion at 1 mg.Kg-1 dose in rabbit; type: ADME, organism-based, Oryctolagus cuniculus; details: both, New Zealand White, blood, read-out: Mean residence time (converted)
[50] = Terminal half-life of epirubicin following intrahepatic epirubicin emulsion at 1 mg.Kg-1 dose in rabbit; type: ADME, organism-based, Oryctolagus cuniculus; details: both, New Zealand White, blood

Sequence of Albumin (P02768 whole entry): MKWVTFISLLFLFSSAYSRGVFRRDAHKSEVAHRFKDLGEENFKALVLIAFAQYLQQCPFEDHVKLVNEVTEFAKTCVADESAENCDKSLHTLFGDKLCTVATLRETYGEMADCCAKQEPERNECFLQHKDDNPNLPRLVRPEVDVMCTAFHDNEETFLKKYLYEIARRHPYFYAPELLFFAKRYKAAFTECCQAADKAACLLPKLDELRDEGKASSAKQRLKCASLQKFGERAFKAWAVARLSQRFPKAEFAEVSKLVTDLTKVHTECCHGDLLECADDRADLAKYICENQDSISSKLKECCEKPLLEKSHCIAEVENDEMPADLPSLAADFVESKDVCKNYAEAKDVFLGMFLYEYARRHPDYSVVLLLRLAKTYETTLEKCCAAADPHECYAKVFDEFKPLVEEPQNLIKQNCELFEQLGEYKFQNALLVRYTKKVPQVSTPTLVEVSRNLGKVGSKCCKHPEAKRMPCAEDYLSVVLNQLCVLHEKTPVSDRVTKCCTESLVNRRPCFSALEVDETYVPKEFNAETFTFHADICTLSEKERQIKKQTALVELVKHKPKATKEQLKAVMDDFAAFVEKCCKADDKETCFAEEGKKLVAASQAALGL

SMILES: COc1cccc2c1C(=O)c1c(O)c3c(c(O)c1C2=O)C[C@@](O)(C(=O)CO)C[C@@H]3O[C@H]1C[C@H](N)[C@@H](O)[C@H](C)O1.Cl [EPIRUBICIN HYDROCHLORIDE]
- half-life [1]: 51.1 h
- clearance [2]: 589 mL/min
- Compound recovery [3]: 56 10^-9M
- CHOL_CHANGE [4]: OUTCOME = Increased
- PHOSLPD_CHANGE [5]: OUTCOME = Increased
- fraction unbound [6]: 0.43
- Radiolabel recovery [7]: 5.9%
- Radiolabel recovery [8]: 20%
- dose excreted at 168 h [9]: 6.4%
- Radiolabel recovery [10]: 10.7%
- dose excreted at 96 h [11]: 21.9%
- dose excreted at 7 Day [12]: 6.4%
- clearance [13]: 1130 mL/min
- clearance [14]: 1250 mL/min
- half-life [15]: 40 h
- Vss [16]: 1844 L.m-2
- Vss [17]: 1858 L.m-2
- t1/2 [18]: 2.92 min
- t1/2 [19]: 3.4 min
- half-life [20]: 13.9 h
- Vss [21]: 836 L.m-2
- t1/2 [22]: 18.1 h
- t1/2 [23]: 3.15 min
- half-life [24]: 15.3 h
- Vss [25]: 592 L.m-2
- t1/2 [26]: 31.5 h
- t1/2 [27]: 3.44 min
- Vss [28]: 583 L.m-2
- half-life [29]: 29.3 h
- CLp [30]: 41.5 L.h-1.m-2
- t1/2 [31]: 21.1 h
- half-life [32]: 38 h
- Vss [33]: 1432 L.m-2
- Compound recovery [34]: OUTCOME = Observed
- dose excreted [35]: 3.9%
- half-life [36]: 22.9 h
- AUC [37]: 420 ng·h/mL
- AUC [38]: 620 ng·h/mL
- clearance [39]: 323 mL/min
- Vd [40]: 368 L/kg
- AUC [41]: 180 ng·h/mL
- Vd [42]: 30.9 L/kg
- Vd [43]: 18.8 L/kg
- MRT [44]: 1.26 h
- AUC [45]: 36.4 ng·h/mL
- CL/F [46]: 3780 mL/min
- Vd [47]: 129 L/kg
- MRT [48]: 1.38 h
- MRT [49]: 1.11 h
- half-life [50]: 0.868 h
